Laboratory results from PubChem BioAssay AID1259407 (Chemical Carcinogenesis Research Information System (CCRIS), 2018).
Active and inactive are the calls of the source. How the calls were made is not given here.

System: CCRIS mutagenicity, Ames/micronucleus/aberration tests
Assay: CCRIS mutagenicity studies
[1] = Test System: AMES SALMONELLA TYPHIMURIUM, Strain/Indicator: TA98, Metabolic Activation: NONE, Method: PREINCUBATION
[2] = Test System: AMES SALMONELLA TYPHIMURIUM, Strain/Indicator: TA100, Metabolic Activation: NONE, Method: PREINCUBATION
[3] = Test System: AMES SALMONELLA TYPHIMURIUM, Strain/Indicator: TA1535, Metabolic Activation: NONE, Method: PREINCUBATION
[4] = Test System: AMES SALMONELLA TYPHIMURIUM, Strain/Indicator: TA1537, Metabolic Activation: NONE, Method: PREINCUBATION
[5] = Test System: AMES SALMONELLA TYPHIMURIUM, Strain/Indicator: TA100, Metabolic Activation: S-9, Method: PREINCUBATION

C=CC(=O)NCO
mutagenic call (Test System: AMES SALMONELLA TYPHIMURIUM, Strain/Indicator: TA97, Metabolic Activation: HAMSTER, LIVER, S-9, AROCLOR 1254 (10%), Method: PREINCUBATION): inactive; negative | mutagenic call (Test System: AMES SALMONELLA TYPHIMURIUM, Strain/Indicator: TA97, Metabolic Activation: HAMSTER, LIVER, S-9, AROCLOR 1254 (10 OR 30%), Method: PREINCUBATION): inactive; negative | mutagenic call (Test System: AMES SALMONELLA TYPHIMURIUM, Strain/Indicator: TA97, Metabolic Activation: HAMSTER, LIVER, S-9, AROCLOR 1254 (30%), Method: PREINCUBATION): inactive; negative | mutagenic call (Test System: AMES SALMONELLA TYPHIMURIUM, Strain/Indicator: TA97, Metabolic Activation: NONE, Method: PREINCUBATION): inactive; negative | mutagenic call (Test System: AMES SALMONELLA TYPHIMURIUM, Strain/Indicator: TA97, Metabolic Activation: RAT, LIVER, S-9, AROCLOR 1254 (10% OR 30%), Method: PREINCUBATION): inactive; negative | mutagenic call (Test System: AMES SALMONELLA TYPHIMURIUM, Strain/Indicator: TA97, Metabolic Activation: RAT, LIVER, S-9, AROCLOR 1254 (10 OR 30%), Method: PREINCUBATION): inactive; negative | mutagenic call (Test System: AMES SALMONELLA TYPHIMURIUM, Strain/Indicator: TA98, Metabolic Activation: HAMSTER, LIVER, S-9, AROCLOR 1254 (10% OR 30%), Method: PREINCUBATION): inactive; negative | mutagenic call (Test System: AMES SALMONELLA TYPHIMURIUM, Strain/Indicator: TA98, Metabolic Activation: HAMSTER, LIVER, S-9, AROCLOR 1254 (10 OR 30%), Method: PREINCUBATION): inactive; negative | mutagenic call [1]: inactive; negative | mutagenic call (Test System: AMES SALMONELLA TYPHIMURIUM, Strain/Indicator: TA98, Metabolic Activation: RAT, LIVER, S-9, AROCLOR 1254 (10% OR 30%), Method: PREINCUBATION): inactive; negative | mutagenic call (Test System: AMES SALMONELLA TYPHIMURIUM, Strain/Indicator: TA98, Metabolic Activation: RAT, LIVER, S-9, AROCLOR 1254 (10 OR 30%), Method: PREINCUBATION): inactive; negative | mutagenic call (Test System: AMES SALMONELLA TYPHIMURIUM, Strain/Indicator: TA98, Metabolic Activation: RAT, LIVER, S-9, PHENOBARBITAL AND BETA-NAPHTHOFLAVONE, Method: PREINCUBATION): inactive; negative | mutagenic call (Test System: AMES SALMONELLA TYPHIMURIUM, Strain/Indicator: TA100, Metabolic Activation: HAMSTER, LIVER, S-9, AROCLOR 1254 (10% OR 30%), Method: PREINCUBATION): inactive; negative | mutagenic call (Test System: AMES SALMONELLA TYPHIMURIUM, Strain/Indicator: TA100, Metabolic Activation: HAMSTER, LIVER, S-9, AROCLOR 1254 (10 OR 30%), Method: PREINCUBATION): inactive; negative | mutagenic call [2]: inactive; negative | mutagenic call (Test System: AMES SALMONELLA TYPHIMURIUM, Strain/Indicator: TA100, Metabolic Activation: RAT, LIVER, S-9, AROCLOR 1254 (10% OR 30%), Method: PREINCUBATION): inactive; negative | mutagenic call (Test System: AMES SALMONELLA TYPHIMURIUM, Strain/Indicator: TA100, Metabolic Activation: RAT, LIVER, S-9, AROCLOR 1254 (10 OR 30%), Method: PREINCUBATION): inactive; negative | mutagenic call (Test System: AMES SALMONELLA TYPHIMURIUM, Strain/Indicator: TA100, Metabolic Activation: RAT, LIVER, S-9, PHENOBARBITAL AND BETA-NAPHTHOFLAVONE, Method: PREINCUBATION): inactive; negative | mutagenic call (Test System: AMES SALMONELLA TYPHIMURIUM, Strain/Indicator: TA102, Metabolic Activation: NONE, Method: PREINCUBATION): inactive; negative | mutagenic call (Test System: AMES SALMONELLA TYPHIMURIUM, Strain/Indicator: TA102, Metabolic Activation: RAT, LIVER, S-9, PHENOBARBITAL AND BETA-NAPHTHOFLAVONE, Method: PREINCUBATION): inactive; negative | mutagenic call (Test System: AMES SALMONELLA TYPHIMURIUM, Strain/Indicator: TA104, Metabolic Activation: NONE, Method: PREINCUBATION): inactive; negative | mutagenic call (Test System: AMES SALMONELLA TYPHIMURIUM, Strain/Indicator: TA104, Metabolic Activation: RAT, LIVER, S-9, PHENOBARBITAL AND BETA-NAPHTHOFLAVONE, Method: PREINCUBATION): inactive; negative | mutagenic call (Test System: AMES SALMONELLA TYPHIMURIUM, Strain/Indicator: TA1535, Metabolic Activation: HAMSTER, LIVER, S-9, AROCLOR 1254 (10% OR 30%), Method: PREINCUBATION): inactive; negative | mutagenic call (Test System: AMES SALMONELLA TYPHIMURIUM, Strain/Indicator: TA1535, Metabolic Activation: HAMSTER, LIVER, S-9, AROCLOR 1254 (10 OR 30%), Method: PREINCUBATION): inactive; negative | mutagenic call [3]: inactive; negative | mutagenic call (Test System: AMES SALMONELLA TYPHIMURIUM, Strain/Indicator: TA1535, Metabolic Activation: RAT, LIVER, S-9, AROCLOR 1254 (10% OR 30%), Method: PREINCUBATION): inactive; negative | mutagenic call (Test System: AMES SALMONELLA TYPHIMURIUM, Strain/Indicator: TA1535, Metabolic Activation: RAT, LIVER, S-9, AROCLOR 1254 (10 OR 30%), Method: PREINCUBATION): inactive; negative | mutagenic call (Test System: AMES SALMONELLA TYPHIMURIUM, Strain/Indicator: TA1535, Metabolic Activation: RAT, LIVER, S-9, PHENOBARBITAL AND BETA-NAPHTHOFLAVONE, Method: PREINCUBATION): inactive; negative | mutagenic call [4]: inactive; negative | mutagenic call (Test System: AMES SALMONELLA TYPHIMURIUM, Strain/Indicator: TA1537, Metabolic Activation: RAT, LIVER, S-9, PHENOBARBITAL AND BETA-NAPHTHOFLAVONE, Method: PREINCUBATION): inactive; negative | mutagenic call (Test System: E. COLI, Strain/Indicator: WP2UVRA/PKM101, Metabolic Activation: NONE, Method: PREINCUBATION): inactive; negative | mutagenic call (Test System: E. COLI, Strain/Indicator: WP2UVRA/PKM101, Metabolic Activation: RAT, LIVER, S-9, PHENOBARBITAL AND BETA-NAPHTHOFLAVONE, Method: PREINCUBATION): inactive; negative | mutagenic call (Test System: E. COLI, Strain/Indicator: WP2UVRA, Metabolic Activation: NONE, Method: PREINCUBATION): inactive; negative | mutagenic call (Test System: E. COLI, Strain/Indicator: WP2UVRA, Metabolic Activation: RAT, LIVER, S-9, PHENOBARBITAL AND BETA-NAPHTHOFLAVONE, Method: PREINCUBATION): inactive; negative

N#Cc1cccc2cccnc12
mutagenic call [5]: active; positive

C[C@]1(Cn2ccnn2)[C@H](C(=O)O)N2C(=O)C[C@H]2S1(=O)=O
mutagenic call (Test System: AMES SALMONELLA TYPHIMURIUM, Strain/Indicator: TA98, Metabolic Activation: HAMSTER, LIVER, S-9, AROCLOR 1254, Method: STANDARD PLATE): inactive; negative | mutagenic call [1]: inactive; negative | mutagenic call (Test System: AMES SALMONELLA TYPHIMURIUM, Strain/Indicator: TA98, Metabolic Activation: NONE, Method: STANDARD PLATE): inactive; negative | mutagenic call (Test System: AMES SALMONELLA TYPHIMURIUM, Strain/Indicator: TA98, Metabolic Activation: S-9, Method: PREINCUBATION): inactive; negative | mutagenic call (Test System: AMES SALMONELLA TYPHIMURIUM, Strain/Indicator: TA100, Metabolic Activation: HAMSTER, LIVER, S-9, AROCLOR 1254, Method: STANDARD PLATE): inactive; negative | mutagenic call [2]: inactive; negative | mutagenic call (Test System: AMES SALMONELLA TYPHIMURIUM, Strain/Indicator: TA100, Metabolic Activation: NONE, Method: STANDARD PLATE): inactive; negative | mutagenic call [5]: inactive; negative | mutagenic call (Test System: AMES SALMONELLA TYPHIMURIUM, Strain/Indicator: TA102, Metabolic Activation: HAMSTER, LIVER, S-9, AROCLOR 1254, Method: STANDARD PLATE): inactive; negative | mutagenic call (Test System: AMES SALMONELLA TYPHIMURIUM, Strain/Indicator: TA102, Metabolic Activation: NONE, Method: STANDARD PLATE): inactive; negative | mutagenic call [3]: inactive; negative | mutagenic call (Test System: AMES SALMONELLA TYPHIMURIUM, Strain/Indicator: TA1535, Metabolic Activation: S-9, Method: PREINCUBATION): inactive; negative | mutagenic call [4]: inactive; negative | mutagenic call (Test System: AMES SALMONELLA TYPHIMURIUM, Strain/Indicator: TA1537, Metabolic Activation: S-9, Method: PREINCUBATION): inactive; negative | mutagenic call (Test System: E. COLI, Strain/Indicator: WP2 UVRA, Metabolic Activation: NONE, Method: PREINCUBATION): inactive; negative | mutagenic call (Test System: E. COLI, Strain/Indicator: WP2 UVRA, Metabolic Activation: S-9, Method: PREINCUBATION): inactive; negative

C=C(Br)CBr
mutagenic call (Test System: AMES SALMONELLA TYPHIMURIUM, Strain/Indicator: TA100, Metabolic Activation: RAT, LIVER, MICROSOMES, PHENOBARBITAL, NADPH COFACTORS, Method: STANDARD PLATE): active; positive | mutagenic call (Test System: AMES SALMONELLA TYPHIMURIUM, Strain/Indicator: TA100, Metabolic Activation: RAT, LIVER, MICROSOMES, PHENOBARBITAL, Method: STANDARD PLATE): active; positive
